From patent publication EP0728012B1, “NOVEL GnRH ANALOGUES WITH ANTITUMOUR EFFECTS AND PHARMACEUTICAL COMPOSITIONS THEREOF” (Lovas, Sandor, priority 1994, dated 1996)
Non-standard residues stand in square brackets, D forms with d. Residues, ends and D or L forms follow the SMILES beside them. Groups on a side chain read outwards from the residue. *: point of attachment. dPhe(4-Cl) = N[C@H](Cc1ccc(Cl)cc1)C(=O)O; NEt2 = CCN(CC)*

How the values were obtained:
[1] = system: Ishikawa human endometrium carcinoma cell line; assay: Inhibition of colony formation (dose-survival relation, Example 18); assay type: cell-based; details: 50 µM
[2] = system: PC3 human prostate carcinoma cell line; assay: as above; assay type: cell-based; details: 50 µM
humoral immune response = assay: Humoral immune response (antibody production of B-lymphocytes); assay type: in vivo; details: mice
From the text: (§1) The immunosuppressive side effect of cytostatics used in tumour therapy is commonly known. This effect can be compensated to a certain grade by various immunostimulants (endotoxin, levamisole). Polypeptides with much […] molecular weights (about 40,000 to 80,000) are also capable of protecting against immunosuppressive effect [Gaál et al: J. Biol. Resp. Modif., 5, 148-159 (1986)]. The molecular weight of the novel polyanionic P-GFLG-OH macromolecule tested by us is about 10,000, that of MI-1892 is about 2000, i.e. relatively low; therefore, their immunostimulatory activity was unexpected.

MXT mouse mammary tumour = assay: In vivo antitumour effect on mice bearing MXT mouse mammary tumour; parameters: species or system CBA/Ca mice
Experimental: The MXT mouse mammary carcinoma contains ER and PgR proteins; furthermore, it contains also GnRH receptors; therefore, this in vivo tumour model is suitable for studying both the direct and indirect effects. The treatment of mice bearing MXT mammary tumour was commenced on the day following transplantation. […] Table VI The animals were daily treated in s.c. route starting from the day following transplantation of MXT mouse mammary tumour. […] MI-1544: 75 µg/day/animal; MI-1892: 75 µg/day/animal.

MCF-7 xenograft = assay: In vivo antitumour effect on MCF-7 xenograft in immunosuppressed mice; parameters: species or system CBA/Ca mice; details: MCF-7 xenograft; for Tumour volume as control (%): MI-1892 2 x 25 µg
Experimental: (§2) The immunosuppression of mice was carried out by using the method of Steel et al. [Br. J. Cancer, 37, 224-230 (1978)]. Immunosuppression and xeno-transplantation
(§3) CBA-Ca female mice of about 6 weeks old were thymectomized and then, after one week, they were irradiated with 60Co (whole body irradiation; the lethal dose is 9.5 Gray). Within 24 hours 3 to 5 x 10^5 myelocytes were injected into the animals. Beneath the skin of the immunosuppressed mice 2 x 10^7 tumour cells or, in the case of later passages, […] were implanted. […] The treatment with steroid hormone was stopped by at least one week before beginning the investigation.
In the case of MCF-7 tumours (xenografts) the examinations were carried out with passages being in the phase of the 37th and 38th, respectively, transplantations.
In the case of mice bearing MCF-7 xenograft, the treatment was begun in the 4th week following xeno-transplantation.
(§4) Recent investigations have begun on 28 animals bearing MCF-7 xenograft and on 28 animals bearing MDA-MB-231 xenograft. On animals bearing MCF-7 tumour the treatment was commenced in the 5th week following xeno-transplantation; the tumour volume was 205 to 225 mm^3. On animals bearing MDA-MB-231 tumour, the treatment was started in the 4th week after xeno-transplantation with a tumour volume of 140 to 150 mm^3. […] The control groups were daily treated with physiological saline s.c. (Each treated group consisting of 7 animals).

MDA-MB-231 xenograft = assay: In vivo antitumour effect on MDA-MB-231 xenograft in immunosuppressed mice; parameters: species or system CBA/Ca mice
Experimental: as §2, §3, §4
A more recent study was started on 28 animals bearing MDA-MB-231 xenograft. The treatment was begun in the 4th or 5th week following xenotransplantation. The tumour volume was 0.165 to 0.194 cm^3. […] (For treatment of the control group, see the preceding Examples). Each group consisted of 7 animals.

PC3 = assay: In vitro inhibition of cell proliferation (Example 19); assay type: cell-based, human; details: 30 µM, peptide alone, two treatments on days 2 and 4
Experimental: (§5) The procedure of treatment was as follows. After trypsinization the cells, 400,000 cells of MCF-7, MDA-MB-231 human mammary carcinoma, PC3 human prostate carcinoma or Ishikawa human endometrium tumour each were passed into Petri dishes of 10 cm in diameter. Starting from the day following transfer, the cells were treated with the substances to be tested in solution prepared with the nutrient medium during the exponential growth phase. The cultures were treated with 1 to 50 µM (calculated for the total volume of the culture) or MI-1544 GnRH antagonist, MI-1892 chicken GnRH antagonist or SJ-1004 GnRH antagonist analogues as well as synthetic lamprey GnRH-III hormone every two days and the cell count was determined on the 7th day.

cellular immune response = assay: Cellular immune response (rosette formation against BRBC antigen); assay type: in vivo; details: mice; 100 µg/mouse
From the text: as §1

Ishikawa = details: 30 µM, peptide alone, two treatments on days 2 and 4
Experimental: as §5, with “antagonist analogues as well as synthetic lamprey GnRH-III hormone every two days and the cell count was determined” left out

[3] = system: MCF-7 human mammary carcinoma cell line; assay: Inhibition of colony formation (dose-survival relation, Example 18); assay type: cell-based; details: 50 µM (active substance), treated once
MDA-MB-231 = details: MDA-MB-231; 30 µM active substance; conjugate, treated once; listed as 11. P-GFLG-GnRH-III
Experimental: (§6) The procedure of treatment was as follows. After trypsinization the cells, 400,000 cells of MCF-7, MDA-MB-231 human mammary carcinoma, PC3 human prostate carcinoma or Ishikawa human endometrium tumour each were passed into Petri dishes of 10 cm in diameter. Starting from the day following transfer, the cells were treated with the substances to be tested in solution prepared with the nutrient medium during the exponential growth phase. […]

MCF-7 = details: MCF-7; 30 µM active substance; conjugate, treated once; cell count on 7th day; listed as 11. P-GFLG-GnRH-III
Experimental: as §6

human tumour cell lines = assay: Inhibition of colony formation (Example 18), cell line not given; assay type: cell-based; details: on any cell line (Table 1)
Experimental: The investigation gives a precise information about the cell-damaging effect of the tested substance. In the case of cytostatics the cell-damaging effect is not cell-specific. […] One part of the arrested cells again go into the cycle, the other part may perish (apoptosis). […] The investigations were carried out on MCF-7 and MDA-MB-231 human mammary carcinoma cell lines, PC3 human prostate 15 carcinoma cell line and Ishikawa human endometrium carcinoma cell line. Three hundred cells were set into Petri dishes of 3.5 cm in diameter each. The treatment was carried out once, 24 hours following the explantation, then the colonies formed were counted after 9 to 12 days.

[4] = Ovulation / cycle of female rats during prolonged treatment; assay type: in vivo; details: high dose of the coupled GnRH-III; three cycles observed
From the text: In 1993, researchers isolated and synthesized the Lamprey-III-GnRH decapeptide from lamprey (Petromyzon marinus) (p[…]NH2). This Lamprey-III-GnRH (herein below GnRH-III) exerts a significant tumour growth-inhibiting effect on human mammary tumour cell lines.

[5] = MXT mouse mammary tumour, Treatment weeks: 13, 1x75 µg daily s.c.
[6] = MXT mouse mammary tumour, Treatment weeks: 20, 1x75 µg daily s.c.
[7] = Table V, treatment week 4, MI-1892 2x25 µg daily s.c.
[8] = Table V, treatment week 6, MI-1892 2x25 µg, conjugates 1x50 µg daily s.c.
[9] = MDA-MB-231 xenograft, after 9 week treatment, 100 µg daily s.c.
[10] = Table V, treatment week 2, 1x100 µg daily s.c.
[11] = Table V, treatment week 4, 1x100 µg daily s.c.
[12] = Table V, treatment week 6, 1x100 µg daily s.c.
[13] = week 0, daily s.c., 1 x 100 µg series
[14] = week 1, daily s.c., 1 x 100 µg series
[15] = week 2, daily s.c., 1 x 100 µg series
[16] = week 3, daily s.c., 1 x 100 µg series
[17] = week 4, daily s.c., 1 x 100 µg series
[18] = week 5, daily s.c., 1 x 100 µg series
[19] = week 6, daily s.c., 1 x 100 µg series
[20] = week 7, daily s.c., 1 x 100 µg series

CCN(CC)C(=O)[C@H](CC(=O)N[C@@H](CC(C)C)C(=O)N[C@@H](CCC(N)=O)C(=O)N1CCC[C@H]1C(=O)N[C@H](C)C(N)=O)NC(=O)[C@H](CCCCN)NC(=O)[C@H](CO)NC(=O)[C@@H](Cc1c[nH]c2ccccc12)NC(=O)[C@@H](Cc1ccc(Cl)cc1)NC(=O)[C@@H](Cc1c[nH]c2ccccc12)NC(C)=O [MI-1892, Ac-D-Trp^1,3,D-Cpa^2,Lys^5,[β-Asp(DEA)]^6,D-Ala^10-hGnRH, reference compound] (Ac-[dW][dPhe(4-Cl)][dW]SKD([Leu-Gln-Pro-dA-NH2])-NEt2)
% Inhibition of colony formation [1]: 10%
% Inhibition of colony formation [2]: 5%
increase of the humoral immune response (humoral immune response; 50 µg/mouse): more than two-fold
increase of the humoral immune response (humoral immune response; 100 µg/mouse): three-fold
Inhibition % (MXT mouse mammary tumour; [5]): 51%
Tumour volume as control (%) (MXT mouse mammary tumour; [5]): 49%
Inhibition % (MXT mouse mammary tumour; [6]): 39%
Tumour volume as control (%) (MXT mouse mammary tumour; [6]): 61%
Tumour volume (cm^3) (MXT mouse mammary tumour; day 9, 75 µg/day/animal s.c.): 0.61 cm^3
Tumour volume as control (%) (MXT mouse mammary tumour; day 9, 75 µg/day/animal s.c.): 86%
Tumour volume (cm^3) (MXT mouse mammary tumour; day 11, 75 µg/day/animal s.c.): 1.05 cm^3
Tumour volume as control (%) (MXT mouse mammary tumour; day 11, 75 µg/day/animal s.c.): 58%
Tumour volume (cm^3) (MXT mouse mammary tumour; day 13, 75 µg/day/animal s.c.): 1.59 cm^3
Tumour volume as control (%) (MXT mouse mammary tumour; day 13, 75 µg/day/animal s.c.): 49%
Tumour volume (cm^3) (MXT mouse mammary tumour; day 17, 75 µg/day/animal s.c.): 3.17 cm^3
Tumour volume as control (%) (MXT mouse mammary tumour; day 17, 75 µg/day/animal s.c.): 62%
Tumour volume (cm^3) (MXT mouse mammary tumour; day 18, 75 µg/day/animal s.c.): 4.8 cm^3
Tumour volume as control (%) (MXT mouse mammary tumour; day 18, 75 µg/day/animal s.c.): 64%
Tumour volume (cm^3) (MXT mouse mammary tumour; day 20, 75 µg/day/animal s.c.): 5.73 cm^3
Tumour volume as control (%) (MXT mouse mammary tumour; day 20, 75 µg/day/animal s.c.): 61%
Tumour volume (cm^3) (MXT mouse mammary tumour; day 24, 75 µg/day/animal s.c.): 6.32 cm^3
Tumour volume as control (%) (MXT mouse mammary tumour; day 24, 75 µg/day/animal s.c.): 50%
Tumour volume (cm^3) (MXT mouse mammary tumour; day 26, 75 µg/day/animal s.c.): 11.30 cm^3
Tumour volume as control (%) (MXT mouse mammary tumour; day 26, 75 µg/day/animal s.c.): 82%
decrease in the tumour volume in comparison to controls (MCF-7 xenograft; first study, end of 4th week, MI-1892 2 x 25 µg daily, conjugates 50 µg daily once): 20%
Tumour volume as control (%) (MCF-7 xenograft; treatment week 4): 78.5%
Tumour volume as control (%) (MCF-7 xenograft; treatment week 6, conjugates 1 x 50 µg): 79%
Inhibition % (MDA-MB-231 xenograft; [7]): 24.5%
Tumour volume as control (%) (MDA-MB-231 xenograft; [7]): 75.5%
Inhibition % (MDA-MB-231 xenograft; [8]): 22%
Tumour volume as control (%) (MDA-MB-231 xenograft; [8]): 78%
inhibition of proliferation (PC3): 33%
increase of the cellular immune response (cellular immune response): two-fold
inhibition of proliferation (Ishikawa): 14%

{Lys[n-poly(N-vinylpyrrolidone-co-maleic acid)-Gly-Phe-Leu-Gly-]}^8,-GnRH-III [P-GFLG-GnRH-III]
% Inhibition of colony formation [1]: 15%
% Inhibition of colony formation [3]: 9%
% Inhibition of colony formation [2]: 16%
% Inhibition of cell division (proliferation) (MDA-MB-231): 11%
% Inhibition of cell division (proliferation) (MCF-7): 10%
inhibition of colony formation (human tumour cell lines): ≤ 16%
animals that became tumour-free (MDA-MB-231 xenograft; MDA-MB-231 xenograft, 100 µg daily s.c., 6th week of treatment): 2 animals from 7
Volume (cm^3) of tumours (MDA-MB-231 xenograft; [9]): 0.613 ± 0.307 cm^3
Weight (g) of tumours (MDA-MB-231 xenograft; [9]): 0.45 ± 0.4 g
Inhibition % (MDA-MB-231 xenograft; [10]): 20%
Tumour volume as control (%) (MDA-MB-231 xenograft; [10]): 80%
Inhibition % (MDA-MB-231 xenograft; [11]): 36%
Tumour volume as control (%) (MDA-MB-231 xenograft; [11]): 64%
Inhibition % (MDA-MB-231 xenograft; [12]): 67%
Tumour volume as control (%) (MDA-MB-231 xenograft; [12]): 33%
Tumour volume (cm^3) (MDA-MB-231 xenograft; [13]): 0.17 cm^3
Tumour volume as control (%) (MDA-MB-231 xenograft; [13]): 104%
Tumour volume (cm^3) (MDA-MB-231 xenograft; [14]): 0.25 cm^3
Tumour volume as control (%) (MDA-MB-231 xenograft; [14]): 107%
Tumour volume (cm^3) (MDA-MB-231 xenograft; [15]): 0.33 cm^3
Tumour volume as control (%) (MDA-MB-231 xenograft; [15]): 80%
Tumour volume (cm^3) (MDA-MB-231 xenograft; [16]): 0.40 cm^3
Tumour volume as control (%) (MDA-MB-231 xenograft; [16]): 72%
Tumour volume (cm^3) (MDA-MB-231 xenograft; [17]): 0.41 cm^3
Tumour volume as control (%) (MDA-MB-231 xenograft; [17]): 64%
Tumour volume (cm^3) (MDA-MB-231 xenograft; [18]): 0.49 cm^3
Tumour volume as control (%) (MDA-MB-231 xenograft; [18]): 53%
Tumour volume (cm^3) (MDA-MB-231 xenograft; [19]): 0.40 cm^3
Tumour volume as control (%) (MDA-MB-231 xenograft; [19]): 32%
Tumour volume (cm^3) (MDA-MB-231 xenograft; [20]): 0.31 cm^3
Tumour volume as control (%) (MDA-MB-231 xenograft; [20]): 24%
cycle of female rats (castration effect) [4]: not influenced
